Data published in PubChem BioAssay (NCI).
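1) Cells in 96-well plates. 2) Compound, 48 h, 5 concentrations. 3) Linear interpolation between surrounding doses. 4) Unreached endpoint = highest concentration. GI50 = concentration required for 50% inhibition of growth. TGI: total growth inhibition.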

How the values were obtained:
Test in all cases: growth of human tumour cells (NCI), 48 h
HCT-116 colon = system: HCT-116 colon
COLO 205 colon = system: COLO 205 colon
RXF 393 renal = system: RXF 393 renal
OVCAR-4 ovarian = system: OVCAR-4 ovarian
MALME-3M melanoma = system: MALME-3M melanoma
SK-MEL-2 melanoma = system: SK-MEL-2 melanoma
HL-60(TB) leukemia = system: HL-60(TB) leukemia
IGROV1 ovarian = system: IGROV1 ovarian

Compound | TGI (HCT-116 colon) | TGI (COLO 205 colon) | TGI (RXF 393 renal) | TGI (OVCAR-4 ovarian) | TGI (MALME-3M melanoma) | TGI (SK-MEL-2 melanoma) | TGI (HL-60(TB) leukemia) | TGI (IGROV1 ovarian) | GI50 (HCT-116 colon) | GI50 (COLO 205 colon) | GI50 (OVCAR-4 ovarian) | GI50 (MALME-3M melanoma) | GI50 (SK-MEL-2 melanoma) | GI50 (IGROV1 ovarian) | GI50 (HL-60(TB) leukemia) | GI50 (RXF 393 renal)
O=[N+]([O-])c1cc([N+](=O)[O-])c(C(Cl)C(Cl)c2ccccc2)cc1C(Cl)C(Cl)c1ccccc1 (stereo not drawn) | 2.69 µM | 3.18 µM | 2.73 µM | 7.28 µM | 3.31 µM | 3.86 µM | > 100 µM | 7.53 µM |  |  |  |  |  |  |  | 
COc1cc2c3c(c1OCc1ccccc1)NCCC3NCC2 (stereo not drawn) | > 100 µM | > 100 µM | > 100 µM | > 100 µM | > 100 µM |  | > 100 µM | > 100 µM |  |  |  |  |  |  |  | 
Cc1ccc(S(=O)(=O)NC(=O)C#CCOC2CCCCO2)cc1 (stereo not drawn) | > 100 µM |  | > 100 µM | > 100 µM | > 100 µM | > 100 µM | > 100 µM |  |  |  |  |  |  |  |  | 
N#CC(C(=O)C(=O)Nc1ccc(Cl)c(Cl)c1)c1ccc(Cl)cc1 (stereo not drawn) | 49.8 µM | > 100 µM | > 100 µM |  | > 100 µM | > 100 µM | > 100 µM | > 100 µM |  |  |  |  |  |  |  | 
COC(=O)C1=C(C)N(NC(=O)c2cccc(Cl)c2)C(C)(O)C12CCOC2=O (stereo not drawn) | > 100 µM |  |  | > 100 µM | > 100 µM | > 100 µM |  | > 100 µM |  |  |  |  |  |  |  | 
CCOC(=O)NN(C(=O)OCC)C(C(=O)c1ccc(Cl)cc1)=C1NCCN1 | > 100 µM | > 100 µM | > 100 µM | > 100 µM | > 100 µM | > 100 µM | > 100 µM | > 100 µM |  |  |  |  |  |  |  | 
CCOC(=O)/C(=C/c1ccc(Cl)cc1)N(CC)CC | > 100 µM | > 100 µM |  | > 100 µM | > 100 µM | > 100 µM | > 100 µM | > 100 µM |  |  |  |  |  |  |  | 
CC1OC(n2cc(I)c(=O)[nH]c2=O)C=CC1=O (stereo not drawn) | 24.9 µM | 30.7 µM |  | 29.8 µM | 28.5 µM | 32.4 µM | 24.6 µM | 39.2 µM |  |  |  |  |  |  |  | 
C[CH2][Sn]([Cl])([CH2]C)[CH2]C | 10.4 µM | 3.8 µM |  | 11 µM | 3.77 µM | 4.48 µM |  | 5.22 µM | 1.33 µM | 1.48 µM | 1.41 µM | 0.572 µM | 0.606 µM | 0.646 µM |  | 
NC(=O)OCC(COc1ccc(Cl)cc1)OC(=O)c1cc([N+](=O)[O-])cc([N+](=O)[O-])c1 (stereo not drawn) | > 100 µM | > 100 µM | > 100 µM |  | > 100 µM | > 100 µM | > 100 µM | > 100 µM |  |  |  |  |  |  |  | 
CC1=C2[C@@H](c3ccccc3)C3C=CC2(c2ccccc23)N(C(=O)Nc2cccc3ccccc23)C1=O (stereo partly drawn) | > 100 µM | > 100 µM |  | > 100 µM | > 100 µM |  | > 100 µM | > 100 µM |  |  |  |  |  |  |  | 
CN/N=C(/CC(=O)c1sc(-n2nc(-c3ccccc3)cc2-c2ccccc2)nc1C)C(=O)Nc1ccc(Cl)c(Cl)c1 | > 100 µM | > 100 µM | > 100 µM | > 100 µM | > 100 µM | > 100 µM |  | > 100 µM |  |  |  |  |  |  |  | 
CCCCCCCCCCNC(=S)OCCCC | 34.7 µM |  | 59.5 µM | > 100 µM | 54.8 µM | 27.7 µM | 31.2 µM | 87.3 µM |  |  |  |  |  |  |  | 
N#CC(C#N)=Cc1ccc(Oc2ccccc2)cc1 | 44 µM | > 100 µM | > 100 µM |  | 45.3 µM | > 55.7 µM | 55.1 µM | > 69 µM |  |  |  |  |  |  |  | 
COc1cccc(N2C(=O)[C@H]3[C@H]4CC(C(C)(C)C)CC[C@H]4c4c([nH]c5ccccc45)[C@H]3C2=O)c1 (stereo partly drawn) |  | 32.2 µM | 42 µM |  | 47.4 µM | 40.3 µM | > 100 µM | 39.1 µM |  |  |  |  |  |  |  | 
N#Cc1nc(Nc2ccc(Cl)cc2)sc1N | > 100 µM | 47.7 µM |  | > 72.5 µM | 66.1 µM | 47.3 µM | > 76.7 µM | > 88.9 µM |  |  |  |  |  |  |  | 
CO[C@]12CCC(=O)N1C=Cc1c2[nH]c2ccccc12 | > 100 µM | > 100 µM | > 100 µM | > 100 µM | > 100 µM |  | > 100 µM | > 100 µM |  |  |  |  |  |  |  | 
COc1ccc2c([nH]c3cc(O)c(C)cc32)c1CC=C(C)C | > 25 µM | > 25 µM |  | > 25 µM | > 25 µM | > 25 µM | > 25 µM | > 25 µM | 11.9 µM |  |  | 17.3 µM |  |  | 7.94 µM | 
N=C(N)c1ccc(-c2ccc(-c3ccc(Cl)c(Cl)c3)o2)nc1 |  |  | 3.58 µM |  | 3.42 µM |  | 5.09 µM | 3.59 µM |  |  |  | 1.78 µM |  | 1.86 µM | 2.24 µM | 1.65 µM
CCOC1=C2C(C)(CCC3[C@@]4(C)C=CC(=O)C(C)(C)C4CC(O)[C@@]23C)C(c2ccoc2)C1=O (stereo partly drawn) | 23.7 µM | 29.3 µM | 34 µM | > 100 µM |  | 43.4 µM | 36.3 µM | > 100 µM |  |  |  |  |  |  |  | 
CN1CCc2cc(O)c3cc2C1Cc1ccc(cc1)Oc1cc(ccc1O)CC1c2c(cc4c(c2O3)OCO4)CCN1C (stereo not drawn) | > 100 µM | 28.8 µM | 60.2 µM | 88.6 µM |  | 34.2 µM | 38.8 µM | > 100 µM |  |  |  |  |  |  |  | 
